Here are results for 36 compounds from the NIST ThermoML archive (doi:10.1021/je200195q).

± gives the expanded uncertainty stated by the source.

The data set in a line: activity coefficient (dimensionless); of the first substance listed, at infinite dilution; xn = mol fraction of the nth substance listed. The conditions noted are these: 101 kPa, Liquid, Chromatography, x1 = 0.

As to `CC(C)OC(C)C` [diisopropyl ether] + CCCCCC[n+]1ccn(C)c1.FC(F)(F)C(F)(F)[P-](F)(F)(F)(C(F)(F)C(F)(F)F)C(F)(F)C(F)(F)F, the activity coefficient by setting is: (312.8 K) 1.59 ± 0.1; (332.85 K) 1.7 ± 0.11; (354.65 K) 1.72 ± 0.12.
As for `CC(C)OC(C)C` [diisopropyl ether] + CCCCn1cc[n+](C)c1.O=S(=O)([N-]S(=O)(=O)C(F)(F)C(F)(F)F)C(F)(F)C(F)(F)F, the activity coefficient stood at 3.46 ± 0.24 (322.55 K), 3.46 ± 0.23 (342.75 K) and 3.43 ± 0.23 (362.65 K).
As to `CC(C)OC(C)C` [diisopropyl ether] + CCn1cc[n+](C)c1.CS(=O)(=O)[O-], the activity coefficient by setting is: (312.55 K) 84.5 ± 5.8; (322.45 K) 74.2 ± 5.1; (332.45 K) 67.7 ± 4.6.
For the compound `CCCCCCCCCCCC` [dodecane] + CCCCCC[n+]1ccn(C)c1.FC(F)(F)C(F)(F)[P-](F)(F)(F)(C(F)(F)C(F)(F)F)C(F)(F)C(F)(F)F, the activity coefficient by setting is: (312.8 K) 39.3 ± 2.7; (332.85 K) 33.1 ± 2.3; (354.65 K) 25.7 ± 1.8.
With `CCCCCCCCCCCC` [dodecane] + CCCCn1cc[n+](C)c1.O=S(=O)([N-]S(=O)(=O)C(F)(F)C(F)(F)F)C(F)(F)C(F)(F)F, the activity coefficient turned out to be 77.8 ± 5.3 (322.55 K), 62 ± 4.2 (342.75 K) and 50.9 ± 3.5 (362.65 K).
For `CCO` [ethanol] + CCCCCCCCCCn1cc[n+](CCCCCCCCCC)c1C.O=S(=O)([N-]S(=O)(=O)C(F)(F)F)C(F)(F)F, the activity coefficient stood at 1.27 ± 0.082 (323.1 K), 1.15 ± 0.073 (333.15 K) and 1.04 ± 0.065 (343.15 K).
Regarding `CCO` [ethanol] + CCCCCC[n+]1ccn(C)c1.FC(F)(F)C(F)(F)[P-](F)(F)(F)(C(F)(F)C(F)(F)F)C(F)(F)C(F)(F)F, the activity coefficient runs as follows: (312.8 K) 2.1 ± 0.14; (332.85 K) 1.69 ± 0.11; (354.65 K) 1.31 ± 0.085.
With `CCO` [ethanol] + CCCCn1cc[n+](C)c1.O=S(=O)([N-]S(=O)(=O)C(F)(F)C(F)(F)F)C(F)(F)C(F)(F)F, the activity coefficient (322.55 K) stood at 1.65 ± 0.11, the activity coefficient (342.75 K) was 1.37 ± 0.089 and the activity coefficient (362.65 K) came to 1.18 ± 0.075.
In the case of `CCO` [ethanol] + CCn1cc[n+](C)c1.CS(=O)(=O)[O-], the activity coefficient reads like this: (312.55 K) 0.438 ± 0.035; (322.45 K) 0.418 ± 0.035; (332.45 K) 0.405 ± 0.034.
Consider `CCc1ccccc1` [ethylbenzene] + CCCCCCCCCCn1cc[n+](CCCCCCCCCC)c1C.O=S(=O)([N-]S(=O)(=O)C(F)(F)F)C(F)(F)F, for which the activity coefficient is, setting by setting: (323.1 K) 0.652 ± 0.045; (333.15 K) 0.662 ± 0.045; (343.15 K) 0.689 ± 0.046.
Regarding `CCc1ccccc1` [ethylbenzene] + CCCCCC[n+]1ccn(C)c1.FC(F)(F)C(F)(F)[P-](F)(F)(F)(C(F)(F)C(F)(F)F)C(F)(F)C(F)(F)F, the activity coefficient came out at 0.956 ± 0.06 (312.8 K), 1.03 ± 0.065 (332.85 K) and 1.04 ± 0.066 (354.65 K).
In the case of `CCc1ccccc1` [ethylbenzene] + CCCCn1cc[n+](C)c1.O=S(=O)([N-]S(=O)(=O)C(F)(F)C(F)(F)F)C(F)(F)C(F)(F)F, the activity coefficient by setting is: (322.55 K) 2.04 ± 0.14; (342.75 K) 2.05 ± 0.14; (362.65 K) 2.06 ± 0.14.
`CCCCCCC` [heptane] + CCCCCCCCCCn1cc[n+](CCCCCCCCCC)c1C.O=S(=O)([N-]S(=O)(=O)C(F)(F)F)C(F)(F)F: the activity coefficient (323.1 K) was 2.53 ± 0.17, the activity coefficient (333.15 K) came to 2.11 ± 0.14 and the activity coefficient (343.15 K) was 2.08 ± 0.14.
For the compound `CCCCCCC` [heptane] + CCCCCC[n+]1ccn(C)c1.FC(F)(F)C(F)(F)[P-](F)(F)(F)(C(F)(F)C(F)(F)F)C(F)(F)C(F)(F)F, the activity coefficient turned out to be 8.84 ± 0.6 (312.8 K), 7.73 ± 0.53 (332.85 K) and 6.62 ± 0.45 (354.65 K).
In the case of `CCCCCCC` [heptane] + CCCCn1cc[n+](C)c1.O=S(=O)([N-]S(=O)(=O)C(F)(F)C(F)(F)F)C(F)(F)C(F)(F)F, the activity coefficient was 13.6 ± 0.93 (322.55 K), 12.4 ± 0.84 (342.75 K) and 11.6 ± 0.79 (362.65 K).
Consider `CCCCCCC` [heptane] + CCn1cc[n+](C)c1.CS(=O)(=O)[O-], for which the activity coefficient reads like this: (312.55 K) 432 ± 30; (322.45 K) 2230 ± 150; (332.45 K) 497 ± 34.
Regarding `C=CCCCC` [hex-1-ene] + CCCCCCCCCCn1cc[n+](CCCCCCCCCC)c1C.O=S(=O)([N-]S(=O)(=O)C(F)(F)F)C(F)(F)F, the activity coefficient by setting is: (323.1 K) 1.39 ± 0.091; (333.15 K) 1.38 ± 0.09; (343.15 K) 1.36 ± 0.089.
For the compound `C=CCCCC` [hex-1-ene] + CCCCCC[n+]1ccn(C)c1.FC(F)(F)C(F)(F)[P-](F)(F)(F)(C(F)(F)C(F)(F)F)C(F)(F)C(F)(F)F, the activity coefficient amounted to 3.67 ± 0.25 (312.8 K), 3.42 ± 0.23 (332.85 K) and 3.14 ± 0.21 (354.65 K).
Consider `C=CCCCC` [hex-1-ene] + CCCCn1cc[n+](C)c1.O=S(=O)([N-]S(=O)(=O)C(F)(F)C(F)(F)F)C(F)(F)C(F)(F)F, for which the activity coefficient is 6.07 ± 0.41 (322.55 K), 5.55 ± 0.38 (342.75 K) and 5.24 ± 0.36 (362.65 K).
For the compound `CCCCCC` [hexane] + CCCCCCCCCCn1cc[n+](CCCCCCCCCC)c1C.O=S(=O)([N-]S(=O)(=O)C(F)(F)F)C(F)(F)F, the activity coefficient runs as follows: (323.1 K) 1.82 ± 0.12; (333.15 K) 1.79 ± 0.12; (343.15 K) 1.76 ± 0.12.
For `CCCCCC` [hexane] + CCCCCC[n+]1ccn(C)c1.FC(F)(F)C(F)(F)[P-](F)(F)(F)(C(F)(F)C(F)(F)F)C(F)(F)C(F)(F)F, the activity coefficient is 6.39 ± 0.44 (312.8 K), 5.69 ± 0.39 (332.85 K) and 4.41 ± 0.3 (354.65 K).
As to `CCCCCC` [hexane] + CCCCn1cc[n+](C)c1.O=S(=O)([N-]S(=O)(=O)C(F)(F)C(F)(F)F)C(F)(F)C(F)(F)F, the activity coefficient by setting is: (322.55 K) 9.49 ± 0.65; (342.75 K) 8.8 ± 0.6; (362.65 K) 8.43 ± 0.57.
Take `CCCCCC` [hexane] + CCn1cc[n+](C)c1.CS(=O)(=O)[O-]: the activity coefficient (312.55 K) came out at 207 ± 14, the activity coefficient (322.45 K) was determined as 190 ± 13 and the activity coefficient (332.45 K) stood at 152 ± 10.
As to `C=O` [methanal] + CCCCCCCCCCn1cc[n+](CCCCCCCCCC)c1C.O=S(=O)([N-]S(=O)(=O)C(F)(F)F)C(F)(F)F, the activity coefficient amounted to 0.074 ± 0.03 (323.1 K), 0.08 ± 0.03 (333.15 K) and 0.085 ± 0.03 (343.15 K).
Regarding `C=O` [methanal] + CCCCCC[n+]1ccn(C)c1.FC(F)(F)C(F)(F)[P-](F)(F)(F)(C(F)(F)C(F)(F)F)C(F)(F)C(F)(F)F, the activity coefficient by setting is: (312.8 K) 0.096 ± 0.03; (332.85 K) 0.134 ± 0.029; (354.65 K) 0.146 ± 0.029.
Turning to `C=O` [methanal] + CCCCn1cc[n+](C)c1.O=S(=O)([N-]S(=O)(=O)C(F)(F)C(F)(F)F)C(F)(F)C(F)(F)F, the activity coefficient by setting is: (322.55 K) 0.134 ± 0.029; (342.75 K) 0.155 ± 0.029; (362.65 K) 0.164 ± 0.029.
`C=O` [methanal] + CCn1cc[n+](C)c1.CS(=O)(=O)[O-]: the activity coefficient came out at 0.615 ± 0.043 (312.55 K), 0.656 ± 0.045 (322.45 K) and 0.691 ± 0.046 (332.45 K).
For `CO` [methanol] + CCCCCCCCCCn1cc[n+](CCCCCCCCCC)c1C.O=S(=O)([N-]S(=O)(=O)C(F)(F)F)C(F)(F)F, the activity coefficient by setting is: (323.1 K) 0.963 ± 0.061; (333.15 K) 0.857 ± 0.055; (343.15 K) 0.755 ± 0.05.
As for `CO` [methanol] + CCCCCC[n+]1ccn(C)c1.FC(F)(F)C(F)(F)[P-](F)(F)(F)(C(F)(F)C(F)(F)F)C(F)(F)C(F)(F)F, the activity coefficient by setting is: (312.8 K) 1.57 ± 0.1; (332.85 K) 2.01 ± 0.14; (354.65 K) 1.58 ± 0.1.
With `CO` [methanol] + CCCCn1cc[n+](C)c1.O=S(=O)([N-]S(=O)(=O)C(F)(F)C(F)(F)F)C(F)(F)C(F)(F)F, the activity coefficient by setting is: (322.55 K) 1.23 ± 0.079; (342.75 K) 0.997 ± 0.062; (362.65 K) 0.942 ± 0.059.
As to `CO` [methanol] + CCn1cc[n+](C)c1.CS(=O)(=O)[O-], the activity coefficient runs as follows: (312.55 K) 0.249 ± 0.03; (322.45 K) 0.254 ± 0.03; (332.45 K) 0.264 ± 0.03.
`CC1CCCCC1` [methylcyclohexane] + CCCCCCCCCCn1cc[n+](CCCCCCCCCC)c1C.O=S(=O)([N-]S(=O)(=O)C(F)(F)F)C(F)(F)F: the activity coefficient was 1.52 ± 0.1 (323.1 K), 1.48 ± 0.098 (333.15 K) and 1.45 ± 0.095 (343.15 K).
On to `CC1CCCCC1` [methylcyclohexane] + CCCCCC[n+]1ccn(C)c1.FC(F)(F)C(F)(F)[P-](F)(F)(F)(C(F)(F)C(F)(F)F)C(F)(F)C(F)(F)F, for which the activity coefficient came to 5.89 ± 0.4 (312.8 K), 5.23 ± 0.36 (332.85 K) and 4.49 ± 0.31 (354.65 K).
For `CC1CCCCC1` [methylcyclohexane] + CCCCn1cc[n+](C)c1.O=S(=O)([N-]S(=O)(=O)C(F)(F)C(F)(F)F)C(F)(F)C(F)(F)F, the activity coefficient was determined as 9.09 ± 0.62 (322.55 K), 7.96 ± 0.54 (342.75 K) and 7.07 ± 0.48 (362.65 K).
As to `CC1CCCC1` [methylcyclopentane] + CCCCCCCCCCn1cc[n+](CCCCCCCCCC)c1C.O=S(=O)([N-]S(=O)(=O)C(F)(F)F)C(F)(F)F, the activity coefficient is, setting by setting: (323.1 K) 1.35 ± 0.088; (333.15 K) 1.33 ± 0.086; (343.15 K) 1.3 ± 0.084.
As for `CC1CCCC1` [methylcyclopentane] + CCCCCC[n+]1ccn(C)c1.FC(F)(F)C(F)(F)[P-](F)(F)(F)(C(F)(F)C(F)(F)F)C(F)(F)C(F)(F)F, the activity coefficient (312.8 K) turned out to be 4.58 ± 0.31, the activity coefficient (332.85 K) is 4.09 ± 0.28 and the activity coefficient (354.65 K) was determined as 3.52 ± 0.24.
